In article PMC9090415, “Discovery of small molecule inhibitors of Plasmodium falciparum apicoplast DNA polymerase” (Journal of Enzyme Inhibition and Medicinal Chemistry, 2022):

Target: P. falciparum apicoplast DNA polymerase (Pf-apPOL) (Plasmodium falciparum, UniProt Q8ILY1)
Assay: Fluorescence-based high-throughput DNA polymerase assay (molecular beacon), primary screen and dose-response
Assay type: biochemical
Protocol: The HT assay employs a molecular beacon, a stem-loop DNA template with a Cy3 dye and the Black Hole Quencher on the 3′ and 5′ ends of the DNA, respectively. Pf-apPOL concentration is based on a calculated absorptivity of ε280 = 56750 M^−1 cm^−1. Reactions were carried out at 25 °C, using Corning 3575 […] (well-volume, 20 µL). Assays testing for compound inhibition composed of reaction buffer (pH 7.9 in 50 mM potassium acetate, 20 mM Tris-acetate and 10 mM magnesium acetate), Pf-apPOL (20 nM), DNA substrate (20 nM), dNTPs (6 µM), and compound (10 µM in DMSO). The DNA and nucleotide substrates (dNTPs) were at concentrations of 20 nM and 6 µM, respectively, in the assay. Pf-apPOL was incubated in the reaction buffer with dNTPs and the compound of interest (10 µM, in the assay) at 25 °C for 10 min. The DNA substrate was then added and the reaction was allowed to proceed for 90 min at 25 °C.
Each assay plate contained 16 negative controls (no Pf-apPOL, DMSO present) and 16 positive controls (Pf-apPOL present, no DMSO). The fluorescence of each well was determined using a BioTek Synergy Neo fluorescence plate reader using excitation and emission wavelengths of 555 and 570 nm, respectively.
In the above, Min is the average of fluorescence emission of the negative controls (substrate only), Max the average fluorescence emission from the positive controls (enzyme + substrate), and Test the emission from the assays in the presence of compounds (enzyme + compound + substrates). […] […] The IC50 of each compound was determined using Equation (2): (2) IC50= Vmax/(1+ (I/IC50)^n)
In the above, n measures cooperativity, with n > 1 indicating synergistic binding of more than a single molecule of the compound.
To identify apPOL inhibitors we utilised our previously developed high-throughput DNA polymerase assay. The HT assay is based on a molecular beacon DNA template that forms a stem-loop with a Cy3 dye and the Black Hole Quencher on the 3′ and 5′ ends of the DNA, respectively. DNA polymerase activity extends an annealed primer through the stem region, displacing the fluorophore from the quencher, thereby increasing its fluorescence (Figure 1(A)). The assay accurately recapitulates the kinetic behaviour of apPOL, as measured through more conventional low-throughput gel-based assays. The Z′ factor for the assay described here was 0.9 across all plates (data not shown).
Figure 1. High-throughput screening. (A) The fluorescent-based DNA polymerase assay used to screen the compound libraries. The DNA template strand is a hairpin loop with a primer annealed to the loop. The 3’ end of the primer is 11 bases away from the 6 bp duplex. Strand displacement activity of the DNA polymerase separates the Cy3 dye from the Black hole quencher leading to an increase in fluorescent signal. (B) The high-throughput assay workflow. The DNA polymerase is incubated with […] compound for 10 min prior to addition of the hairpin substrate. The reaction is quenched at 3 different time points and the fluorescent signal is measured and % inhibition is determined using the provided equation.

Chain of P. falciparum apicoplast DNA polymerase (Pf-apPOL) (Q8ILY1 entry or part of it): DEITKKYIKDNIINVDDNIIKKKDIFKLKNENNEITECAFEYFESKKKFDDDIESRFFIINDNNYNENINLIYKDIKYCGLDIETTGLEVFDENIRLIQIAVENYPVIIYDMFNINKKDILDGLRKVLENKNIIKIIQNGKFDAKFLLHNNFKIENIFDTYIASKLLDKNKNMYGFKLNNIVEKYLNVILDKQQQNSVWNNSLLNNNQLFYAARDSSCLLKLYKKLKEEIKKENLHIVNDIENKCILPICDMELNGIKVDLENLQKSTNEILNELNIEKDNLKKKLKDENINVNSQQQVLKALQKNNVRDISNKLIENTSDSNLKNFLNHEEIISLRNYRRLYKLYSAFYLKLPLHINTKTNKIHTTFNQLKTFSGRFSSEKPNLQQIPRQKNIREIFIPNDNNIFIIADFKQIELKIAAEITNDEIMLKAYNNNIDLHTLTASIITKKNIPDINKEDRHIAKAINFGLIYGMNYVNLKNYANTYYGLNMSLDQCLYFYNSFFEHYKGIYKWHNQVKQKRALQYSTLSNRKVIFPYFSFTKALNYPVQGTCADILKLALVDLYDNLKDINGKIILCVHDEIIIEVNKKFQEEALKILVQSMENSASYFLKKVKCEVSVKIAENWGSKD

SMILES: O=C(O)c1c(F)c(F)c(-c2c(F)c(F)c(C(=O)O)c(F)c2F)c(F)c1F [KU0008974]
- DNA Pol (186 hits, value of the hit list (primary screen); unit not given; 90 min, 10 µM): 36
- % inhibition Apo pol 10' (DRC-1; 10'; concentration 2.5): 9.435%
- % inhibition Apo pol 10' (DRC-1; 10'; concentration 5): 13.4595%
- % inhibition Apo pol 10' (DRC-1; 10'; concentration 10): 21.422%
- % inhibition Apo pol 10' (DRC-1; 10'; concentration 20): 42.0339%
- % inhibition Apo pol 10' (DRC-1; 10'; concentration 40): 61.4201%
- % inhibition Apo pol 10' (DRC-1; 10'; concentration 80): 59.9111%
- % inhibition Apol 90' (DRC-1; 90'; concentration 2.5): 3.377%
- % inhibition Apol 90' (DRC-1; 90'; concentration 5): 7.4359%
- % inhibition Apol 90' (DRC-1; 90'; concentration 10): 14.2426%
- % inhibition Apol 90' (DRC-1; 90'; concentration 20): 33.67%
- % inhibition Apol 90' (DRC-1; 90'; concentration 40): 52.8962%
- % inhibition Apol 90' (DRC-1; 90'; concentration 80): 50.0149%
- % inhibition apPOL 180' (DRC-1; 180'; concentration 2.5): -2.039%
- % inhibition apPOL 180' (DRC-1; 180'; concentration 5): 0.5684%
- % inhibition apPOL 180' (DRC-1; 180'; concentration 10): 7.634%
- % inhibition apPOL 180' (DRC-1; 180'; concentration 20): 22.5458%
- % inhibition apPOL 180' (DRC-1; 180'; concentration 40): 40.2712%
- % inhibition apPOL 180' (DRC-1; 180'; concentration 80): 38.6937%
- % inhibition Apo pol 5' (DRC-2, 5', concentration 2.5): 4%
- % inhibition Apo pol 5' (DRC-2, 5', concentration 5): 5%
- % inhibition Apo pol 5' (DRC-2, 5', concentration 10): 17%
- % inhibition Apo pol 5' (DRC-2, 5', concentration 20): 29%
- % inhibition Apo pol 5' (DRC-2, 5', concentration 40): 17%
- % inhibition Apo pol 5' (DRC-2, 5', concentration 80): 35%
- % inhibition Apol 40' (DRC-2, 40', concentration 2.5): 5%
- % inhibition Apol 40' (DRC-2, 40', concentration 5): 9%
- % inhibition Apol 40' (DRC-2, 40', concentration 10): 23%
- % inhibition Apol 40' (DRC-2, 40', concentration 20): 41%
- % inhibition Apol 40' (DRC-2, 40', concentration 40): 20%
- % inhibition Apol 40' (DRC-2, 40', concentration 80): 47%
- % inhibition ApPOL 90' (DRC-2, 90', concentration 2.5): 2.67%
- % inhibition ApPOL 90' (DRC-2, 90', concentration 5): 7.58%
- % inhibition ApPOL 90' (DRC-2, 90', concentration 10): 21%
- % inhibition ApPOL 90' (DRC-2, 90', concentration 20): 39%
- % inhibition ApPOL 90' (DRC-2, 90', concentration 40): 19%
- % inhibition ApPOL 90' (DRC-2, 90', concentration 80): 47%
- % inhibition apPOL 180' (DRC-2, 180', concentration 2.5): -4%
- % inhibition apPOL 180' (DRC-2, 180', concentration 5): -1%
- % inhibition apPOL 180' (DRC-2, 180', concentration 10): 12%
- % inhibition apPOL 180' (DRC-2, 180', concentration 20): 30%
- % inhibition apPOL 180' (DRC-2, 180', concentration 40): 14%
- % inhibition apPOL 180' (DRC-2, 180', concentration 80): 40%
- % inhibition Apo pol 5' (DRC-2; 5'; concentration 5): 5%
- % inhibition Apo pol 5' (DRC-2; 5'; concentration 10): 17%
- % inhibition Apo pol 5' (DRC-2; 5'; concentration 40): 17%
- % inhibition Apol 40' (DRC-2; 40'; concentration 2.5): 5%
- % inhibition Apol 40' (DRC-2; 40'; concentration 80): 47%
- % inhibition ApPOL 90' (DRC-2; 90'; concentration 80): 47%
- DNA Pol (primary screen value, 'DNA Pol' only; 90 min, 10 µM): 36

SMILES: CCCCSc1nnc2c(n1)OC(c1ccc([N+](=O)[O-])o1)Nc1ccccc1-2 (stereo not drawn) [KU0065811]
- % inhibition Apo pol 10' (DRC-1; 10'; concentration 2.5): 24.76%
- % inhibition Apo pol 10' (DRC-1; 10'; concentration 5): 28.8752%
- % inhibition Apo pol 10' (DRC-1; 10'; concentration 10): 64.0477%
- % inhibition Apo pol 10' (DRC-1; 10'; concentration 20): 79.0403%
- % inhibition Apo pol 10' (DRC-1; 10'; concentration 40): 87.9065%
- % inhibition Apo pol 10' (DRC-1; 10'; concentration 80): 83.2493%
- % inhibition Apol 90' (DRC-1; 90'; concentration 2.5): 16.1067%
- % inhibition Apol 90' (DRC-1; 90'; concentration 5): 15.8932%
- % inhibition Apol 90' (DRC-1; 90'; concentration 10): 47.3098%
- % inhibition Apol 90' (DRC-1; 90'; concentration 20): 63.8014%
- % inhibition Apol 90' (DRC-1; 90'; concentration 40): 80.4903%
- % inhibition Apol 90' (DRC-1; 90'; concentration 80): 83.7363%
- % inhibition apPOL 180' (DRC-1; 180'; concentration 2.5): 8.192%
- % inhibition apPOL 180' (DRC-1; 180'; concentration 5): 3.59%
- % inhibition apPOL 180' (DRC-1; 180'; concentration 10): 30.0435%
- % inhibition apPOL 180' (DRC-1; 180'; concentration 20): 48.0622%
- % inhibition apPOL 180' (DRC-1; 180'; concentration 40): 73.3106%
- % inhibition apPOL 180' (DRC-1; 180'; concentration 80): 82.0141%
- % inhibition Apol 40' (DRC-2, 40', concentration 5 (unit not given)): 36%
- % inhibition Apol 40' (DRC-2, 40', concentration 20 (unit not given)): 59%
- % inhibition ApPOL 90' (DRC-2, 90', concentration 20 (unit not given)): 59%
- % inhibition Apo pol 5' (DRC-2; 5'; concentration 2.5): 27%
- % inhibition Apo pol 5' (DRC-2; 5'; concentration 5): 36%
- % inhibition Apo pol 5' (DRC-2; 5'; concentration 5 (unit not given)): 36%
- % inhibition Apo pol 5' (DRC-2; 5'; concentration 10): 51%
- % inhibition Apo pol 5' (DRC-2; 5'; concentration 20): 47%
- % inhibition Apo pol 5' (DRC-2; 5'; concentration 40): 37%
- % inhibition Apo pol 5' (DRC-2; 5'; concentration 80): 13%
- % inhibition Apol 40' (DRC-2; 40'; concentration 2.5): 25%
- % inhibition Apol 40' (DRC-2; 40'; concentration 5): 36%
- % inhibition Apol 40' (DRC-2; 40'; concentration 10): 55%
- % inhibition Apol 40' (DRC-2; 40'; concentration 20): 59%
- % inhibition Apol 40' (DRC-2; 40'; concentration 40): 57%
- % inhibition Apol 40' (DRC-2; 40'; concentration 80): 42%
- % inhibition ApPOL 90' (DRC-2; 90'; concentration 2.5): 22%
- % inhibition ApPOL 90' (DRC-2; 90'; concentration 5): 32%
- % inhibition ApPOL 90' (DRC-2; 90'; concentration 10): 52%
- % inhibition ApPOL 90' (DRC-2; 90'; concentration 20): 59%
- % inhibition ApPOL 90' (DRC-2; 90'; concentration 40): 62%
- % inhibition ApPOL 90' (DRC-2; 90'; concentration 80): 50%
- % inhibition apPOL 180' (DRC-2; 180'; concentration 2.5): 11%
- % inhibition apPOL 180' (DRC-2; 180'; concentration 5): 19%
- % inhibition apPOL 180' (DRC-2; 180'; concentration 10): 41%
- % inhibition apPOL 180' (DRC-2; 180'; concentration 20): 53%
- % inhibition apPOL 180' (DRC-2; 180'; concentration 40): 64%
- % inhibition apPOL 180' (DRC-2; 180'; concentration 80): 58%
- DNA Pol (primary screen value of the 186 hits; unit not given; 90 min, 10 µM): 52
- DNA Pol (primary screen value, head "DNA Pol", unit not given; 90 min, 10 µM): 52

SMILES: Oc1ccc(N=Nc2ccccc2)c(O)c1 [Molecule 80]
- IC50 (supplemental file 2, sheet IC50 nontoxic compounds; Pf-apPOL): 37.5 µM
